Source: article PMC4638363, “Linear Interaction Energy Based Prediction of Cytochrome P450 1A2 Binding Affinities with Reliability Estimation” (PLoS ONE, 2015)
Where two headings read alike, the source gives them in different places.

Tests used:
[1] = test system: recombinant CYP 1A2; conditions: cited from earlier work
[2] = target: T1, human CYP 1A2 (Homo sapiens, UniProt P05177)
T1 sequence (P05177 1-516): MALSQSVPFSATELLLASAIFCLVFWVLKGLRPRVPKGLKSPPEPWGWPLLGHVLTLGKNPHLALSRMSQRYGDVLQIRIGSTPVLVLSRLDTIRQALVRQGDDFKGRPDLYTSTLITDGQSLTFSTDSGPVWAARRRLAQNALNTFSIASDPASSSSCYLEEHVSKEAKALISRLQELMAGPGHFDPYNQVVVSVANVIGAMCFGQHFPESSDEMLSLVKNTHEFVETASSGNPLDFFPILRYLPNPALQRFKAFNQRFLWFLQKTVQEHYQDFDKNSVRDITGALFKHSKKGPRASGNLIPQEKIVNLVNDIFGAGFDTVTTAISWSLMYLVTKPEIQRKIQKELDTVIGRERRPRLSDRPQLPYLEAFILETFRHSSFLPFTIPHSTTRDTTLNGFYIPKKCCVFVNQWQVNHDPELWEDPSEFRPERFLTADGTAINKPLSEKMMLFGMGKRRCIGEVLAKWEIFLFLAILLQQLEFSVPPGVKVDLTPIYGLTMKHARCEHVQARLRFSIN

[3] = test system: recombinant CYP 1A2
[4] = test system: CYP 1A2; conditions: Table A, Source 1; ref Bayer HealthCare databases for CYP inhibition (eTOX); cited from earlier work
[5] = test system: CYP 1A2; conditions: literature; cited from earlier work
[6] = test system: CYP 1A2; conditions: cited from earlier work
[7] = test system: CYP 1A2; conditions: for ΔG bind (lit): from literature IC50, Source 2 (Ref. 58)
[8] = test system: recombinant CYP 1A2; conditions: from literature IC50, Source 3
[9] = target: T1, human CYP 1A2; experiment: in-house CYP 1A2 inhibition assay with 7-methoxyresorufin as substrate (resorufin fluorescence)
[10] = Table A, Source 3, ref Korhonen et al., J. Med. Chem. 2005
[11] = read-out: IC 50 (lit), Source 2, recombinant CYPs, phenacetin O-deethylation

Compound: Cc1ccc2ccccc2n1 [Compound 44, Quinaldine]
- IC50 [1, 10]: 40 µM

Compound: Cc1cccc2c(C)cccc12 [Compound 39, 1,5-Dimethylnaphthalene]
- Residual (ΔGbind^Obs–ΔG bind ^Calc), error in prediction [2]: -0.478 kcal/mol
- IC50 [1]: 42 µM
- ΔGbind^Obs ([3]; human): -6.43 kcal/mol

Compound: Cc1cccc2ccccc12 [Compound 28, 1-Methylnaphthalene]
- Residual (ΔGbind^Obs—ΔGbind^Calc) ([2]; training set): -0.502 kcal/mol
- IC50 [1, 10]: 110 µM
- ΔGbind^Obs ([3]; human): -5.86 kcal/mol

Compound: CCCCc1ccccc1 [Compound 69, Butylbenzene]
- Residual (ΔGbind^Obs–ΔG bind ^Calc), error in prediction ([2]; test set): 1.43 kcal/mol
- IC50 [1, 10]: 3700 µM
- ΔGbind^Obs ([3]; human): -3.75 kcal/mol

Compound: COC(=O)[C@H](c1ccccc1Cl)N1CCc2sccc2C1 [Compound 19, Clopidogrel]
- IC50 [4]: 24.2 µM
- Reported inhibition mechanism [5]: Substrate^69

Compound: c1ccc2c(c1)CCC2 [Compound 63, Indan]
- IC50 [1]: 550 µM
- ΔGbind^Obs ([3]; human): -4.88 kcal/mol

Compound: Cc1nc2c([nH]1)c(=O)n(C)c(=O)n2Cc1ccco1 [Compound 24, Furafylline]
- Reported inhibition mechanism [5]: Mechanism-based^71

Compound: O=c1cc(-c2ccccc2)oc2c1ccc1ccccc12 [Compound 7, alpha-Naphthoflavone]
- Reported inhibition mechanism [5]: Competitive/uncompetitive^65

Compound: COC1=CC(=O)OC1 [Compound 71, 4-Methoxyfuran-2-(5H)-one]
- Residual (ΔGbind^Obs–ΔG bind ^Calc), error in prediction ([2]; test set): 1.34 kcal/mol
- IC50 [1]: 40000 µM
- ΔGbind^Obs ([8]; test set): -2.32 kcal/mol

Compound: c1ccc2c(c1)CCO2 [Compound 62, 2,3-Dihydrobenzofuran]
- Residual (ΔGbind^Obs—ΔGbind^Calc) ([2]; training set): -0.096 kcal/mol
- IC50 [1, 10]: 1200 µM
- ΔGbind^Obs ([8]; training set): -4.42 kcal/mol

Compound: Clc1ccccc1-c1ccccc1 [Compound 66, 2-Chlorobiphenyl]
- Residual (ΔGbind^Obs–ΔG bind ^Calc), error in prediction ([2]; test set): 0.669 kcal/mol
- IC50 [1, 10]: 230 µM
- ΔGbind^Obs ([3]; human): -5.4 kcal/mol

Compound: CCCCC1CCCCC1 [Compound 68, Butylcyclohexane]
- Residual (ΔGbind^Obs—ΔGbind^Calc) ([2]; training set): 0.526 kcal/mol
- IC50 [1, 10]: 55 µM
- ΔGbind^Obs ([8]; training set): -6.26 kcal/mol

Compound: CCC1CCC(=O)O1 (centres unmarked) [Compound 52, γ-Caprolactone]
- Residual (ΔGbind^Obs—ΔGbind^Calc) [2]: 0.956 kcal/mol
- IC50 [1]: 9900 µM
- ΔGbind^Obs ([3]; human): -3.15 kcal/mol

Compound: Cc1cnc2ccccc2c1 [Compound 45, 3-Methylquinoline]
- IC50 [1, 10]: 13 µM

Compound: Clc1cccc2ccccc12 [Compound 29, 1-Chloronaphthalene]
- Residual (ΔGbind^Obs–ΔG bind ^Calc), error in prediction [2]: -0.932 kcal/mol
- IC50 [1, 10]: 50 µM
- ΔGbind^Obs ([3]; human): -6.31 kcal/mol

Compound: Clc1ccccc1CN1CCc2sccc2C1 [Compound 8, Ticlopidine]
- Reported inhibition mechanism [5]: Competitive^66

Compound: O=c1[nH]c2ccccc2o1 [Compound 64, 2-Benzoxazolinone]
- Residual (ΔGbind^Obs—ΔGbind^Calc) ([2]; training set): 0.19 kcal/mol
- IC50 [1, 10]: 370 µM
- ΔGbind^Obs ([3]; human): -5.11 kcal/mol

Compound: CN1C(=O)CC[C@H]1c1cccnc1 [Compound 73, Cotinine]
- Residual (ΔGbind^Obs—ΔGbind^Calc) ([2]; training set): 1.84 kcal/mol
- IC50 [1, 10]: 5400 µM
- ΔGbind^Obs ([8]; training set): -3.51 kcal/mol

Compound: Cc1ccc2cccc(C)c2c1 [Compound 41, 1,7-Dimethylnaphthalene]
- Residual (ΔGbind^Obs–ΔG bind ^Calc), error in prediction ([2]; test set): -1.46 kcal/mol
- IC50 [1, 10]: 7.5 µM
- ΔGbind^Obs ([3]; human): -7.46 kcal/mol

Compound: Cc1c2ccncc2c(C)c2c1[nH]c1ccccc12 [Compound 5, Ellipticine]
- IC50 [6, 11]: 0.11 ± 0.01 µM
- ΔG bind (lit) [7]: -9.99 ± 0.048 kcal/mol
- IC50 [9]: 0.007 ± 0.002 µM
- ΔΔG bind ([9]; difference in ΔG bind between literature and in-house determined values): 1.65 kcal/mol
- ΔG bind (inhouse) ([9]; from in-house IC50 via Cheng-Prusoff and RTln(Ki)): -11.6 ± 0.17 kcal/mol

Compound: Cc1ccc2ccc(C)cc2c1 [Compound 43, 2,7-Dimethylnaphthalene]
- Residual (ΔGbind^Obs–ΔG bind ^Calc), error in prediction ([2]; test set): 0 kcal/mol
- IC50 [1, 10]: 65 µM
- ΔGbind^Obs ([3]; human): -6.17 kcal/mol

Compound: O=C1CCC(c2ccccc2)O1 (centres unmarked) [Compound 70, γ-Phenyl-γ-butyrolactone]
- Residual (ΔGbind^Obs—ΔGbind^Calc) ([2]; training set): 1.36 kcal/mol
- IC50 [1, 10]: 2300 µM
- ΔGbind^Obs [3]: -4.04 kcal/mol
